Read-outs that look alike come from different tables or passages of the source.
What was measured:
patients with stable CAD = conditions: cited from earlier work
patients with CAD = assay: Meta-analysis of RCTs of colchicine for secondary cardiovascular prevention (pooled); format: in vivo, human
Method: Medline (PUBMED), EMBASE, and Cochrane central were searched to identify RCTs comparing colchicine to placebo or no colchicine for secondary cardiovascular prevention (inception to Sep. 1, 2020). To maximized sensitivity, citation chasing was performed in Google Scholar, Scopus, and Web of Science. Secondary prevention was defined as patients with clinically manifest or established CAD. Query terms included “colchicine”, “coronary artery disease”, “acute coronary syndrome”, “myocardial infarction”, “cardiovascular disease”, “atherosclerosis”, and “secondary prevention”, either separately or in combination.
RCTs that met the following criteria were included in the meta-analysis: 1) compared daily use of low-dose (0.5 mg) colchicine to placebo or no colchicine for secondary cardiovascular prevention; 2) the study reported at least one of the following outcomes: cardiovascular death, MI, stroke, cardiac arrest, or urgent coronary revascularization; 3) other than the trial medication, patients in both arms were treated in accordance to guideline directed medical therapy; 4) the minimum follow-up was at least 1 year; and 5) trials were published in a peer-reviewed scientific journal. Review articles, editorials, meta-analyses, observational studies, and published abstracts were excluded from the present meta-analysis.
Using standardized forms, data on study characteristics, patient characteristics, and outcomes were extracted on the intent-to-treat population independently by two reviewers from each eligible study. The Cochrane Collaboration risk-of-bias tool for randomized trials was used to evaluate study quality. The meta-analysis was conducted in accordance to the Preferred Reporting Items for Systematic Reviews and Meta-Analyses (PRISMA) guidelines.
The primary efficacy endpoint was a composite of cardiovascular death, MI, ischemic stroke, and urgent coronary revascularization. Secondary efficacy endpoints consisted of the components of the primary endpoint, composite of cardiovascular death, MI, and ischemic stroke, as well as deep vein thrombosis or pulmonary embolus, and atrial fibrillation (AF). To maximize consistency in pooling efficacy endpoints among trials, the primary and secondary composite efficacy and stroke endpoints in COLCOT were modified to meet the definition of primary and stroke endpoints of the LoDoCo2 trial. Therefore, adjudicated events of resuscitated cardiac arrest and non-ischemic stroke in COLCOT were excluded from the pooled primary endpoint. The component endpoint of stroke was also restricted to include only ischemic strokes. Incidence rates and hazards ratios (HRs) were calculated for the new primary composite endpoint and ischemic stroke endpoint using individual patient data from COLCOT.
Safety outcomes were limited to serious adverse events (SAEs) and included all-cause and non-cardiovascular mortality, hospitalization for gastrointestinal event, infection, and pneumonia, as well as diagnosis of cancer. Incidence of SAEs were recalculated for COLCOT using the intent-to-treat population.
The DerSimonian and Laird random-effects model was used to calculate the pooled HR and corresponding 95% confidence intervals (CI) for primary and secondary endpoints in the overall trial and in subgroup analyses of the primary endpoint. For safety outcomes, the DerSimonian and Laird random-effects model was used to compute risk ratios (RR) and corresponding 95% CIs. Heterogeneity was evaluated with the Higgins I^2 statistic. I^2 values of <25%, 25-75%, and >75% were considered to indicate low, moderate, and high degrees of heterogeneity, respectively. In subgroup analyses, the Qb statistic was calculated to determine inconsistency and variability in the treatment effect between strata. Publication and small study bias were assessed with the Egger's regression test and visually by asymmetry in funnel plots. […]

[1] = test system: high-sensitivity C-reactive protein level and white-cell count; assay: COLCOT biomarkers of inflammation; format: in vivo, human; conditions: for Hs-C reactive protein, geometric mean: N = 99; for Total white blood cell count, geometric mean: N = 992
Source text: (§1) Additional prespecified exploratory end points included the change from baseline to 6 months in the high-sensitivity C-reactive protein level and the change from baseline to 12 months in the white-cell count. The C-reactive protein biomarker substudy was implemented after a protocol amendment and was optional for sites and for patients; 34 sites chose to participate in this substudy.
(§2) The analysis of the primary end point was repeated in the per-protocol population (i.e., patients without major protocol deviations). Secondary and exploratory end points expressed as time to event were analyzed similarly. The changes from baseline to follow-up were analyzed with the use of an analysis of covariance model with adjustment for baseline value, and estimates of treatment effect are presented with 95% confidence intervals.
(§3) High-sensitivity C-reactive protein was measured in a subgroup of only 207 patients at the time of randomization and 6 months later, and the median concentration at trial entry was 4.28 mg per liter. […] The adjusted geometric mean percent changes in the high-sensitivity C-reactive protein level at 6 months after myocardial infarction were −70.0% in the colchicine group and −66.6% in the placebo group, and the placebo-adjusted geometric mean percent change was −10.1% percentage points in the colchicine group (95% CI, −28.6 to 13.4) (Table 17).
(§4) In Table 17, the placebo-adjusted geometric mean percent change was obtained by exponentiating the adjusted mean difference between groups from the analysis of covariance model (based on log-transformed data), then subtracting 1 and multiplying by 100.
(§5) In addition, the C-reactive protein biomarker sub-study was implemented following a protocol amendment and was optional for sites and for patients; 34 sites accepted to participate in this substudy. There were 213 and 208 patients who provided blood samples at baseline and 6 months, respectively. Paired baseline and 6-month hs-CRP values were available in 207 patients. Clinically available white blood cell counts were obtained from 2598 patients at baseline and 1998 patients at 12 months, and paired baseline and 12-month values were available in 1972 patients. Statistical analysis was conducted on the patients who provided both baseline and follow-up data and as these were exploratory analyses, no missing data was imputed.

[2] = COLCOT biomarkers of inflammation; format: in vivo, human; conditions: baseline to 12 months
Source text: as §1, §2, §3, §4, §5

[3] = colchicine vs placebo or no colchicine
[4] = baseline to 12 months, listed as colchicine

COc1cc2c(c(OC)c1OC)-c1ccc(OC)c(=O)cc1[C@@H](NC(C)=O)CC2 [Colchicine, colchicine]
Primary composite outcome (cardiovascular mortality, myocardial infarction, ischemic stroke, urgent revascularization), Events N (patients with stable CAD; LoDoCo2, N = 2762, median follow-up 28.6 months): 187 N
Cardiovascular mortality, HR (95% CI) (patients with stable CAD; LoDoCo2, colchicine vs placebo): 0.80 (0.44-1.44)
Ischemic stroke, HR (95% CI) (patients with stable CAD; LoDoCo2, colchicine vs placebo): 0.66 (0.35-1.25)
Myocardial infarction, HR (95% CI) (patients with stable CAD; LoDoCo2, colchicine vs placebo): 0.70 (0.53-0.93)
Primary composite outcome, HR (95% CI) (patients with stable CAD; LoDoCo2, colchicine vs placebo): 0.69 (0.57-0.83)
Urgent coronary revascularization, HR (95% CI) (patients with stable CAD; LoDoCo2, colchicine vs placebo): 0.75 (0.60-0.94)
all-cause mortality, HR (patients with stable CAD; LoDoCo2, colchicine vs placebo): 1.21
Myocardial infarction, HR (95% CI) (patients with stable CAD; LoDoCo2, colchicine vs placebo, listed as colchicine): 0.70
Cardiovascular mortality, Events % (patients with stable CAD; LoDoCo2): 0.7%
Cardiovascular mortality, Events N (patients with stable CAD; LoDoCo2): 20 N
Ischemic stroke, Events % (patients with stable CAD; LoDoCo2): 0.6%
Ischemic stroke, Events N (patients with stable CAD; LoDoCo2): 16 N
Myocardial infarction, Events % (patients with stable CAD; LoDoCo2): 3.0%
Myocardial infarction, Events N (patients with stable CAD; LoDoCo2): 83 N
Primary composite outcome, Events % (patients with stable CAD; LoDoCo2): (6.8%)
Urgent coronary revascularization, Events % (patients with stable CAD; LoDoCo2): (4.9%)
Urgent coronary revascularization, Events N (patients with stable CAD; LoDoCo2): 135 N
AF diagnoses and AF episodes, pooled HR (patients with CAD; [3]): 0.86
MIs, pooled HR (patients with CAD; [3]): 0.62
all-cause mortality, pooled RR (patients with CAD; [3]): 1.04
ischemic strokes, pooled HR (patients with CAD; [3]): 0.38
non-cardiovascular mortality, pooled RR (patients with CAD; [3]): 1.38
urgent coronary revascularization, pooled HR (patients with CAD; [3]): 0.58
primary composite endpoint (cardiovascular mortality, MI, ischemic stroke, urgent coronary revascularization), pooled HR (patients with CAD; colchicine vs placebo or no colchicine, random-effects model): 0.68
cardiovascular mortality, difference between arms (patients with CAD; pooled RCTs): no statistically significant difference
reduction in the incidence of major cardiovascular events (patients with CAD; pooled RCTs): 32%
risk reduction for MIs (patients with CAD; pooling HRs from the RCTs): 38%
risk reduction for ischemic strokes (patients with CAD; pooling HRs from the RCTs): 62%
risk reduction for urgent coronary revascularization (patients with CAD; pooling HRs from the RCTs): 44%
Hs-C reactive protein, geometric mean ([1]; 6 months): 1.37 mg/L
Circulating lymphocytes, geometric mean ([1]; 12 months): 1.83 10^3/μL
Circulating neutrophils, geometric mean ([1]; 12 months): 3.95 10^3/μL
Total white blood cell count, geometric mean ([1]; 12 months): 6.95 10^3/μL
Circulating lymphocytes, geometric mean ([1]; Randomization): 1.79 10^3/μL
Circulating neutrophils, geometric mean ([1]; Randomization): 5.45 10^3/μL
Hs-C reactive protein, geometric mean ([1]; Randomization): 4.27 mg/L
Total white blood cell count, geometric mean ([1]; Randomization): 8.54 10^3/μL
Hs-C reactive protein, Adjusted GM percent change ([1]; baseline to 6 months): −70.0%
Hs-C reactive protein, Placebo-adjusted GM percent change ([1]; baseline to 6 months): −10.1%
Circulating lymphocytes, Placebo-adjusted GM percent change ([1]; baseline to 12 months): 1.10%
Circulating neutrophils, Adjusted GM percent change ([1]; baseline to 12 months): −27.63%
Circulating neutrophils, Placebo-adjusted GM percent change ([1]; baseline to 12 months): 0.45%
Total white blood cell count, Adjusted GM percent change ([1]; baseline to 12 months): −18.81%
Total white blood cell count, Placebo-adjusted GM percent change ([1]; baseline to 12 months): 0.26%
Total white blood cell count, Adjusted GM percent change [1, 4]: −18.8%
Total white blood cell count, Placebo-adjusted GM percent change [1, 4]: 0.3%
reduction in the C-reactive protein level ([1]; over the first 6 months after myocardial infarction, both trial groups): > 65%
Circulating lymphocytes, Adjusted GM percent change [2]: 1.80%

Reference: patent US11400063B2, “Early administration of low-dose colchicine after myocardial infarction” (INSTITUT DE CARDIOLOGIE DE MONTREAL, priority 2019, dated 2022)
